From US7192906B2, “Substituted pyrazole derivatives, production process thereof, and herbicide compositions containing the derivatives” (SDS Biotech K.K., priority 2001, dated 2007)

What was measured:
Type in all cases: in vivo
Setaria viridis [1] = assay: Test Example 2 upland soil treatment; conditions: Table 5, upland soil treatment, index 0-5
Procedure: (§1) A plastic pot of 130 cm^2 was filled with upland soil. Subsequently, weed seeds of Setaria viridis, Digitaria adscendens, Chenopodium album and Stellaria media, and crop seeds of soybean (Glycine max) and wheat (Triticum aestivum), were sowed and covered with soil of about 1 cm thickness. On the next day after the sowing, the wettable powder prepared in Formulation Example 1 was diluted with water such that the amount of the active ingredient became 1 kg per hectare, and then uniformly applied to the soil surface. On the 21st day after the application, observation and evaluation were carried out according to the aforesaid criteria.
(§2) Herbicidal activity was evaluated based on the following criteria.
(§3) • 5: herbicidal effect of not less than 90%, or phytotoxicity of 90% or more • 4: herbicidal effect of not less than 70% and less than 90%, or phytotoxicity of 70% or more and less than 90% • 3: herbicidal effect of not less than 50% and less than 70%, or phytotoxicity of 50% or more and less than 70% • 2: herbicidal effect of not less than 30% and less than 50%, or phytotoxicity of 30% or more and less than 50% • 1: herbicidal effect of not less than 10% and less than 30%, or phytotoxicity of 10% or more and less than 30% • 0: herbicidal effect of not less than 0% and less than 10%, or phytotoxicity of 0% or more and less than 10%

Digitaria adscendens [2] = assay: Test Example 2 upland soil treatment; conditions: Table 5, upland soil treatment, index 0-5
Procedure: as §1, §2, §3

Stellaria media [3] = assay: Test Example 2 upland soil treatment; conditions: Table 5, upland soil treatment, index 0-5
Procedure: as §1, §2, §3

Chenopodium album [4] = assay: Test Example 2 upland soil treatment; conditions: Table 5, upland soil treatment, index 0-5
Procedure: as §1, §2, §3

Setaria viridis [5] = assay: Test Example 1 upland field foliage treatment; conditions: Table 4, upland field foliage treatment, index 0-5
Procedure, shortened: (§4)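 Scored 0–5 (0: under 10%, 5: 90% or more effect or phytotoxicity) on day 21 after treatment; plants sown in upland soil received a leaf-surface spray 14 days post-sowing of diluted wettable powder delivering 1 kg active ingredient/ha.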

Digitaria adscendens [6] = assay: Test Example 1 upland field foliage treatment; conditions: Table 4, upland field foliage treatment, index 0-5
Procedure, shortened: as §4

Stellaria media [7] = assay: Test Example 1 upland field foliage treatment; conditions: Table 4, upland field foliage treatment, index 0-5
Procedure, shortened: as §4

Chenopodium album [8] = assay: Test Example 1 upland field foliage treatment; conditions: Table 4, upland field foliage treatment, index 0-5
Procedure, shortened: as §4

soybean (Glycine max) [9] = assay: Test Example 2 upland soil treatment, crop phytotoxicity; conditions: Table 5, upland soil treatment, index 0-5
Procedure: as §1, §2, §3

[10] = tested on: wheat (Triticum aestivum); assay: as above; conditions: Table 5, upland soil treatment, index 0-5
Procedure: as §1, §2, §3

soybean (Glycine max) [11] = assay: Test Example 1 upland field foliage treatment, crop phytotoxicity; conditions: Table 4, upland field foliage treatment, index 0-5
Procedure, shortened: as §4

[12] = tested on: wheat (Triticum aestivum); assay: as above; conditions: Table 4, upland field foliage treatment, index 0-5
Procedure, shortened: as §4

Row | SMILES | Herbicidal activity SV: Setaria viridis (Setaria viridis [1]) | Herbicidal activity DA: Digitaria adscendens (Digitaria adscendens [2]) | Herbicidal activity SM: Stellaria media (Stellaria media [3]) | Herbicidal activity CA: Chenopodium album (Chenopodium album [4]) | Herbicidal activity SV: Setaria viridis (Setaria viridis [5]) | Herbicidal activity DA: Digitaria adscendens (Digitaria adscendens [6]) | Herbicidal activity SM: Stellaria media (Stellaria media [7]) | Herbicidal activity CA: Chenopodium album (Chenopodium album [8]) | Herbicidal activity (phytotoxicity) GM: Soybean (Glycine max) (soybean (Glycine max) [9]) | Herbicidal activity (phytotoxicity) TA: Wheat (Triticum aestivum) [10] | Herbicidal activity (phytotoxicity) GM: Soybean (Glycine max) (soybean (Glycine max) [11]) | Herbicidal activity (phytotoxicity) TA: Wheat (Triticum aestivum) [12]
1 | CNC(=O)C(Cn1cc(C)c(-c2ccc(F)c(Br)c2)n1)=NOC [Compound 83] | 5 (herbicidal effect of not less than 90%, or phytotoxicity of 90% or more) | 5 (herbicidal effect of not less than 90%, or phytotoxicity of 90% or more) | 5 (herbicidal effect of not less than 90%, or phytotoxicity of 90% or more) | 5 (herbicidal effect of not less than 90%, or phytotoxicity of 90% or more) | 3 (herbicidal effect of not less than 50% and less than 70%, or phytotoxicity of 50% or more and less than 70%) | 5 (herbicidal effect of not less than 90%, or phytotoxicity of 90% or more) | 4 (herbicidal effect of not less than 70% and less than 90%, or phytotoxicity of 70% or more and less than 90%) | 4 (herbicidal effect of not less than 70% and less than 90%, or phytotoxicity of 70% or more and less than 90%) | 0 (herbicidal effect of not less than 0% and less than 10%, or phytotoxicity of 0% or more and less than 10%) | 0 (herbicidal effect of not less than 0% and less than 10%, or phytotoxicity of 0% or more and less than 10%) | 0 (herbicidal effect of not less than 0% and less than 10%, or phytotoxicity of 0% or more and less than 10%) | 0 (herbicidal effect of not less than 0% and less than 10%, or phytotoxicity of 0% or more and less than 10%)
2 | CNC(=O)C(Cn1cc(C)c(-c2cc(F)cc(C(F)(F)F)c2)n1)=NOC [Compound 88] | 4 (herbicidal effect of not less than 70% and less than 90%, or phytotoxicity of 70% or more and less than 90%) | 4 (herbicidal effect of not less than 70% and less than 90%, or phytotoxicity of 70% or more and less than 90%) | 5 (herbicidal effect of not less than 90%, or phytotoxicity of 90% or more) | 5 (herbicidal effect of not less than 90%, or phytotoxicity of 90% or more) | 4 (herbicidal effect of not less than 70% and less than 90%, or phytotoxicity of 70% or more and less than 90%) | 5 (herbicidal effect of not less than 90%, or phytotoxicity of 90% or more) | 5 (herbicidal effect of not less than 90%, or phytotoxicity of 90% or more) | 5 (herbicidal effect of not less than 90%, or phytotoxicity of 90% or more) | 0 (herbicidal effect of not less than 0% and less than 10%, or phytotoxicity of 0% or more and less than 10%) | 0 (herbicidal effect of not less than 0% and less than 10%, or phytotoxicity of 0% or more and less than 10%) | 0 (herbicidal effect of not less than 0% and less than 10%, or phytotoxicity of 0% or more and less than 10%) | 0 (herbicidal effect of not less than 0% and less than 10%, or phytotoxicity of 0% or more and less than 10%)
3 | CCN(CC)C(=O)C(Cn1cc(C)c(-c2ccccc2)n1)=NOC [Compound 94] | 3 (herbicidal effect of not less than 50% and less than 70%, or phytotoxicity of 50% or more and less than 70%) | 3 (herbicidal effect of not less than 50% and less than 70%, or phytotoxicity of 50% or more and less than 70%) | 4 (herbicidal effect of not less than 70% and less than 90%, or phytotoxicity of 70% or more and less than 90%) | 5 (herbicidal effect of not less than 90%, or phytotoxicity of 90% or more) | 3 (herbicidal effect of not less than 50% and less than 70%, or phytotoxicity of 50% or more and less than 70%) | 3 (herbicidal effect of not less than 50% and less than 70%, or phytotoxicity of 50% or more and less than 70%) | 5 (herbicidal effect of not less than 90%, or phytotoxicity of 90% or more) | 5 (herbicidal effect of not less than 90%, or phytotoxicity of 90% or more) | 0 (herbicidal effect of not less than 0% and less than 10%, or phytotoxicity of 0% or more and less than 10%) | 0 (herbicidal effect of not less than 0% and less than 10%, or phytotoxicity of 0% or more and less than 10%) | 0 (herbicidal effect of not less than 0% and less than 10%, or phytotoxicity of 0% or more and less than 10%) | 0 (herbicidal effect of not less than 0% and less than 10%, or phytotoxicity of 0% or more and less than 10%)
4 | CNC(=O)C(Cn1cc(C)c(-c2ccccc2)n1)=NOCc1ccccc1 [Compound 106] | 3 (herbicidal effect of not less than 50% and less than 70%, or phytotoxicity of 50% or more and less than 70%) | 4 (herbicidal effect of not less than 70% and less than 90%, or phytotoxicity of 70% or more and less than 90%) | 4 (herbicidal effect of not less than 70% and less than 90%, or phytotoxicity of 70% or more and less than 90%) | 4 (herbicidal effect of not less than 70% and less than 90%, or phytotoxicity of 70% or more and less than 90%) | 3 (herbicidal effect of not less than 50% and less than 70%, or phytotoxicity of 50% or more and less than 70%) | 3 (herbicidal effect of not less than 50% and less than 70%, or phytotoxicity of 50% or more and less than 70%) | 3 (herbicidal effect of not less than 50% and less than 70%, or phytotoxicity of 50% or more and less than 70%) | 3 (herbicidal effect of not less than 50% and less than 70%, or phytotoxicity of 50% or more and less than 70%) | 0 (herbicidal effect of not less than 0% and less than 10%, or phytotoxicity of 0% or more and less than 10%) | 0 (herbicidal effect of not less than 0% and less than 10%, or phytotoxicity of 0% or more and less than 10%) | 0 (herbicidal effect of not less than 0% and less than 10%, or phytotoxicity of 0% or more and less than 10%) | 0 (herbicidal effect of not less than 0% and less than 10%, or phytotoxicity of 0% or more and less than 10%)
